Assay results: ChEMBL document CHEMBL1156829 (Proc Natl Acad Sci U S A, 2008)
pEC50: −log10 of the molar value.

How the values were obtained:
[1] = system: Plasmodium falciparum; assay: NOVARTIS: Inhibition of Plasmodium falciparum 3D7 (drug-susceptible) proliferation in erythrocyte-based infection assay; type: functional, organism-based; conditions: Plasmodium falciparum, 3D7
[2] = system: Plasmodium falciparum; assay: NOVARTIS: Inhibition of Plasmodium falciparum W2 (drug-resistant) proliferation in erythrocyte-based infection assay; type: functional, organism-based; conditions: Plasmodium falciparum, W2; read-out: EC50
[3] = NOVARTIS: Cytotoxicity against human hepatocellular carcinoma cell line (Huh7); type: toxicity, cell-based, Huh-7; conditions: Huh7 cells (hepatocellular carcinoma cell line)

SMILES | pEC50 [1] | pEC50 [2] | CC50 [3] [nM]
CN1CCN(c2ccc(Nc3c4ccccc4nc4ccccc34)cc2)CC1 | 7.25 | 7.02 | 6760
CC(=Cc1sc2ccc3occc3c2[n+]1CCO)C=C1Sc2ccc3ccoc3c2N1CCO.CCC(=Cc1sc2ccc3ccccc3c2[n+]1C)C=C1Sc2ccc3ccccc3c2N1C | < 6.43 | 6.84 | > 10000
COc1ccc2nc(NC(=N)N)nc(C)c2c1 | 6.15 | 6.06 | 57500
COc1cc(Nc2cncc(-c3ccncc3)n2)cc(OC)c1OC | 5.96 | 5.85 | > 100000
COc1cccc(Nc2nc(NCCO)c3ccccc3n2)c1 | 6.94 | 6.51 | 21100
OCCNc1nc(Nc2cccc(O)c2)nc2ccccc12 | 6.69 | 6.00 | 69400
COc1ccc(C2=C(c3ccc(OC)cc3)C3(c4ccccc4)C(=O)C2(c2ccccc2)C2C(=O)N(c4ccc(C)cc4)C(=O)C23)cc1 (configuration not stated) | < 4.90 | 5.83 | > 100000
CC(C)Cc1ccc(C=CC(=O)NC2CC2)cc1 | 5.94 | 5.83 | > 100000
CCCCOc1ccc(C(O)C(CN2CCCCC2)c2ccccc2)cc1 (configuration not stated) | 6.08 | 6.23 | 39300
COc1ccc(NC(=O)N(CCCNS(=O)(=O)c2ccc([N+](=O)[O-])cc2)c2ccc(Oc3ccccc3)cc2)cc1 | 6.13 | 6.94 | > 7770
CCOC(=O)c1[nH]c2ccc(OC)cc2c1N=NN(C)C | 6.35 | 6.02 | 68600
CC(C)OC(=O)c1cccnc1SCC(=O)Nc1ccc(C(F)(F)F)cc1Cl | 5.26 | 5.82 | > 100000
Cc1cccc(NC(c2cccc(Cl)c2)c2ccc3cccnc3c2O)n1 (configuration not stated) | 6.04 | 6.05 | > 62400
CCN(CC)CCNc1nc(/C=C/c2ccc(Cl)cc2)nc2cc3ccccc3cc12 | 6.91 | 7.05 | 5930
O=C(NCc1ccccc1C(F)(F)F)C1CC(O)CN1C(=O)Nc1ccccc1 (configuration not stated) | < 5.90 | 6.82 | > 10000
COc1ccc(NC(=O)N2CCN(C(=O)c3nc(-c4ccccc4)nc(C)c3C(=O)OC(C)C)CC2C)cc1 (configuration not stated) | 6.20 | 6.85 | > 10000
CCCCOc1ccc(C(=O)N(C)CCCNc2ccnc3cc(Cl)ccc23)cc1 | 6.22 | 7.16 | 4790
O=C(NN=Cc1cccc(Cl)c1)C1COc2ccccc2O1 (configuration not stated) | < 6.03 | < 6.84 | > 10000
COc1ccc(C(OCC(=O)N2CCSCC2)c2ccncc2Cl)cc1 (configuration not stated) | < 4.91 | 5.84 | > 100000
C(=Nc1cnc2ccccc2c1)c1c2n(c3ccccc13)CCCN2 | 6.18 | 5.82 | > 100000
Cc1nc(-c2nc3c(s2)CN(C(=O)c2ccncc2)CC3)cs1 | 6.79 | 6.84 | > 10000
CC1CCCCN1CC(=O)N1CCN(C(=O)CN2CCCCC2C)CC1.CC=O (configuration not stated) | < 5.90 | 7.22 | > 4250
O=C(Nc1ccc(Oc2cccnc2)cc1)C1CCN(Cc2cc3ccccc3o2)CC1 | 6.44 | 5.82 | > 100000

SMILES | pEC50 [1] | pEC50 [2] | CC50 [3] [nM]
CCN1CCN(c2cc(C)c(C#N)c3nc4ccccc4n23)CC1 | 6.10 | 5.82 | > 100000
Cc1noc(C)c1S(=O)(=O)N(Cc1ccccc1)CC(O)CN1CCC(NC(=O)Cc2cccs2)C1 (configuration not stated) | 6.76 | 6.85 | > 10000
CCOC(=O)C1=C(C)N=c2sc(=Cc3cc(Br)ccc3O)c(=O)n2C1c1ccccc1 (configuration not stated) | 5.26 | 5.85 | > 100000
CCOC(=O)C1=C(C(=O)OCC)SC(=C2C(=S)C(C)(C)N(C(=O)c3cccc(F)c3)c3cc(C)ccc32)S1 | < 5.12 | < 5.85 | > 100000
CC(C)CCNC(=O)CN1C(=O)c2cccnc2Oc2ccccc21 | 5.39 | 5.82 | > 100000
O=C(Nc1ccccc1C(F)(F)F)N1CCC(N2CCCCC2)CC1 | < 5.02 | 5.82 | > 100000
CN(CCCNc1ccnc2cc(Cl)ccc12)C(=O)c1ccc(Cl)c(Cl)c1 | 7.44 | 6.91 | > 8360
N#Cc1c(N)n(CCc2ccc(Cl)cc2Cl)c2nc3ccccc3nc12 | 6.08 | 6.31 | 33400
CCCCC(=O)NC(c1cccc([N+](=O)[O-])c1)c1ccc2cccnc2c1O (configuration not stated) | 6.42 | 6.57 | 18800
CC(C)CN1C(=O)N(CCCc2cccnc2)C(=O)C12CCN(C1CCOCC1)CC2 | < 4.90 | 5.85 | > 100000
Cc1ccc(NC(=O)c2cc(C(=O)c3cc(Cl)ccc3O)cn(-c3ccc(C)cc3C)c2=O)c(C)c1 | 6.03 | 6.05 | 59000
COc1ccccc1N1CCN(c2ccc(NC(=O)c3ccc(F)cc3)cc2C(=O)N2CCCC2)CC1 | < 5.90 | 6.83 | > 10000
COC(=O)[C@@H]1C[C@@H](NC(=O)c2ccc(OC)cc2OC)CN1Cc1cccc2ccccc12 | 5.33 | 5.83 | > 100000
CCOc1ccc(NC(=O)C(C)CSc2nc3ccc(NC(=O)CC)cc3s2)cc1 (configuration not stated) | < 4.90 | 5.83 | > 100000
Cc1cc(C)n(-c2ccc(NC(=O)C3CCN(Cc4ccncc4)CC3)cc2)n1 | 5.89 | 5.83 | > 100000
CC1CCCN(c2ccc(C(=O)NC3CC3)cc2[N+](=O)[O-])C1 (configuration not stated) | 6.25 | 5.84 | > 100000
COc1cc(C2c3[nH]c4ccccc4c3C[C@@H]3C(=O)N(CCc4ccccc4)CC(=O)N23)cc(OC)c1OC (some centres not stated) | 6.30 | 6.79 | > 10800
CC(=O)N1c2ccc(C)cc2C(C)(c2ccccc2)CC1(C)C (configuration not stated) | 6.11 | 6.17 | 45400
c1cc2c(cc1Nc1c3c(nc4nncn14)CCC3)OCCO2 | 5.53 | 5.83 | > 100000
O=C(Nc1ccc(NC(=O)c2ccc(C3=NCCCN3)cc2)cc1)Nc1ccc(C2=NCCCN2)cc1 | 6.94 | 6.83 | > 10000
c1ccc(C[n+]2ccc(-c3nc4ccccc4s3)cc2)cc1 | 5.73 | 5.83 | > 100000
CCN(CC)c1ccc(N=Cc2ccccc2[N+](=O)[O-])cc1 | 6.24 | 6.39 | 27700
CCOc1ccc2[nH]c(=O)c(CN(CCN(CC)CC)C(=S)NCCCN(CC)CC)cc2c1 | 5.25 | 5.83 | > 100000

SMILES | pEC50 [1] | pEC50 [2] | CC50 [3] [nM]
CC1CCN(Cc2c(O)ccc3cc(-c4nc5ccccc5s4)c(=O)oc23)CC1 | < 4.90 | 5.83 | > 100000
Cc1cccc(-n2ccnc2SCC(=O)Nc2cc(C(F)(F)F)ccc2Cl)c1 | 6.27 | 5.83 | > 100000
CCC(C(=O)NCCCCNc1ccnc2cc(Cl)ccc12)c1ccccc1 (configuration not stated) | 6.54 | 6.77 | 11500
Cc1ccc(-c2cc(C(F)(F)F)n3ncc(C(=O)Nc4cc(Cl)ccc4O)c3n2)cc1 | 5.73 | 5.85 | > 100000
O=C(Nc1ccc([N+](=O)[O-])cc1Cl)c1cc(Br)ccc1O | < 4.90 | 6.10 | 55600
O=C(Nc1ccc(Oc2cccnc2)cc1)C1CCN(Cc2ccc3nonc3c2)CC1 | 5.95 | 5.85 | > 100000
CCCC(=O)N(C/C=C/c1ccccc1OC)CCN1CCN(C(=O)Nc2cccc(C)c2)CC1 | < 5.90 | 6.83 | > 10000
CCOc1ccc2nc(C)cc(Nc3cccc(O)c3)c2c1 | 6.70 | 6.54 | 19800
Cc1ccc(C(C(=O)NC2CCCCC2)N(C(=O)c2ccc(-c3ccccc3)[nH]2)c2ccc(C3CCCCC3)cc2)o1 (configuration not stated) | 5.93 | 5.83 | > 100000
BrC(Br)(Br)c1ncc(-c2ccccc2)cn1 | 7.36 | 6.85 | > 10000
COc1ccc(CNC2CCN(c3cccc(NC(=O)C4CC4)c3)CC2)cc1 | 5.53 | 6.02 | 65100
CC(=O)C1C(=O)c2c(cccc2[N+](=O)[O-])C1=Nc1ccccc1C (configuration not stated) | 6.19 | 6.11 | 51700
c1ccc(C2=Nc3ccccc3C(c3ccccc3)(c3ccccc3)N2)cc1 | 6.12 | 6.23 | 39400
O=C(NCCCCNc1ccnc2cc(Cl)ccc12)C1CCCCC1 | 6.51 | 6.70 | > 13300
COc1ccc(C(=O)C2CC2c2ccc(Cl)cc2)cc1 (configuration not stated) | 6.66 | 5.85 | > 100000
Cc1sc2ncnc(Nc3ccncc3)c2c1C | < 4.90 | < 5.84 | > 100000
COc1ccc(C)cc1-n1c(-c2ccc(Cl)cc2)cc2c1CC(C)(C)CC2=O | 8.48 | < 6.84 | > 10000
O=C(COC(c1cccs1)c1cccnc1Cl)N1CCN(C(=O)Nc2ccccc2)CC1 (configuration not stated) | < 4.90 | 5.85 | > 100000
CN(CCCNc1ccnc2cc(Cl)ccc12)C(=O)c1cccc(Br)c1 | 7.22 | 6.86 | 9590
Cc1cccnc1NC(c1ccc([N+](=O)[O-])cc1)c1ccc2cccnc2c1O (configuration not stated) | 6.85 | 6.67 | 15000
Cc1ccn2c(NC(C)(C)CC(C)(C)C)c(-c3ccccc3OS(=O)(=O)CC34CCC(CC3=O)C4(C)C)nc2c1 (configuration not stated) | 5.87 | 6.83 | > 10000
Cc1cn2c3ccccc3n(CCN3CCCC3)c2n1 | 6.00 | 6.05 | 60500
CCOC(=O)c1c(C)oc2c1C(=O)c1ccccc1C2=O | 5.71 | 6.15 | 49300
